We go through 2 compounds from US20180265467A1, “PYRAZOLIDINE DERIVATIVES AND RELATED COMPOUNDS” (SELVITA S.A., priority 2015, published 2018).

Assay [1] concerns SNU-398 cells. Description: SNU-398 cellular lactate production assay. The format is cell-based. The note with it: Snu398 cells; shown in FIG. 1. The procedure:
In each case, and by methods known to those practiced, measurement of cellular lactate production is used to measure the activity of compounds on cancer cells.
Cells are seeded on 96-well plate in complete culture medium (200 μL media/well) at a density of 80,000 SNU-398 cells/well. The following day, eight serial dilutions of the test compound is prepared in complete culture medium and added to cells in a fresh media for 2 h. Following incubation 30 μL of culture medium from each well is transferred to a corresponding well on a new 96-well plate. In parallel Lactate Standard (30 μL/well) (Sigma, Cat. # L7022) is prepared in order to create a standard curve. 60 μL of Lactate Reagent (P000024, M Dialysis AB) is added to each well containing lactate standards or test samples and Incubated in dark for 10 min at RT followed by measurement of OD at 530 nm in a microplate reader.
Background subtracted values derived from the lactate standard and sample readings are used to determine ED50 (or % of inhibition) from data obtained in SNU-398 cellular lactate production assay:
ED50 is a quantitative measure that indicates how much of a particular compound is needed to reduce SNU-398 lactate production by half. After normalization to DMSO-control, the value of ED50 is determined by the GraphPad Prism 5.0 [log(inhibitor) vs. normalized response—Variable slope]. […]

In assay [2] the target is T1, LDHA (Homo sapiens, UniProt P00338).
T1 construct: purchased Abcam ab93699
As to the kind of experiment: LDHA assay (decrease in NADH fluorescence). The note with it: numeric bound given instead of a class symbol. The format is biochemical. The protocol:
LDHA and LDHB inhibitory activity of compounds of the present invention is quantified employing the decrease in fluorescence of the cofactor—NADH (being the result of oxidation of NADH to NAD+), over the reaction. […] All the experiments are performed in duplicates in a 96-well plate system (black, flat bottom, non-binding).
The procedure for preparation of the experimental plate is as follows (total volume of the reaction mixture: 200 μL/well):
Conditions for LDHA (Abcam, Cat. No# ab93699) Assay
Mixture of appropriate 1× concentrated reaction buffer (175 μL/well) and 40× concentrated LDHA (5 μL/well); pre-incubate for 30 mins at RT is combined with 20× concentrated pyruvate (10 μL/well) and 20× concentrated NADH (10 μL/well). Tested compounds are dissolved in solvent (DMSO, MeOH, EtOH), and then transferred to the V-bottom 96-well plate (mother plate). Single dilution (for % of inhibition determination) or 8-serial dilutions (for IC50 determination) are prepared using the appropriate solvent. The level of NADH fluorescence is then measured using multimode microplate reader (EnSpire, Perkin Elmer). The reaction should be monitored over 20 minutes with the full plate read performed each 5 minutes. Enzymatic reaction should be run at RT.
IC50 is a quantitative measure that indicates how much of a particular compound (inhibitor) is needed to inhibit a given biological process by half. […]

Some results are limits rather than exact numbers.

As for `O=c1c(Sc2ccccc2Cl)c(O)[nH]n1C(c1ccccc1)c1ccc(N2CCOCC2)cc1` (centres unmarked) [Example 8A, Ammonium 4-[(2-chlorophenyl)sulfanyl]-2-{[4-(morpholin-4-yl)phenyl](phenyl)methyl}-5-oxo-2,5-dihydro-1H-pyrazol-3-olate], the “Inhibition of lactate production” value in assay [1] is recorded as “Inhibition of lactate production”.
With `O=C1N[C@H](Cc2ccccc2)C(O)=C1Sc1cc(Br)ccc1Cl` [Example 6E, 5-benzyl-3-[(5-bromo-2-chlorophenyl)sulfanyl]pyrrolidine-2,4-dione], the IC50 (in general, the concentration that gives 50% inhibition) in assay [2] was over 300 µM.
